Experimental data: patent US12384751B2, “Allosteric activators of the ALPHA1A-adrenergic receptor” (The Cleveland Clinic Foundation, priority 2019, dated 2025)

Key:
α2-ARs = assay: Radioligand binding at α2-ARs
Protocol: Characterization: Binding affinity. Using AR null stably-transfected cell lines that each express only one of the three individual α1-AR subtypes, compounds are characterized for their selectivity for the α1A-AR in radioligand binding studies. To be sure of no cross-reactivity, binding affinity against the α2-ARs and β-ARs are also measured. Details for such procedures are found generally at references 25-26, 94-98, all of which are herein incorporated by reference.

α1A-AR [1] = molecular target: T1, α1A-AR (Homo sapiens, UniProt P35348); assay: Effect of compound on binding affinity of norepinephrine, epinephrine or other ligands at α1A-AR; parameters: expressed in transfected cells; host or cells: Rat-1 fibroblast cells
T1 sequence (P35348 1-466): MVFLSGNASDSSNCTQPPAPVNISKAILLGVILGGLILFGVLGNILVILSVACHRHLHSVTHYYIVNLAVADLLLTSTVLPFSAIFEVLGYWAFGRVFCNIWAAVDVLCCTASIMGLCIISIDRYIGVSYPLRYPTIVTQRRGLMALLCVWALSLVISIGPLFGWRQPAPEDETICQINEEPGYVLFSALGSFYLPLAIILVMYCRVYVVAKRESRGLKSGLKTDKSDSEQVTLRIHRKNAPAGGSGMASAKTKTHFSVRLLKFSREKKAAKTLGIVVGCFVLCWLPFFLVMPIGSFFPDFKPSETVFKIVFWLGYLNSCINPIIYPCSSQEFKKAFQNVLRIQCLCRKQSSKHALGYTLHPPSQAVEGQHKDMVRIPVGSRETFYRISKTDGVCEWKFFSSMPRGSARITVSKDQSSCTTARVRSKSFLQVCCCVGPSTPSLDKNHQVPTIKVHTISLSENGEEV
Protocol: Competition binding assays: These compounds were characterized for their ligand binding properties at the α1-AR subtypes. The binding affinities of Compounds 1-10 were determined in a series of competition-binding experiments with the α1-AR-selective antagonist [^125I]HEAT as the radioligand. Assays were performed in duplicate in HEM buffer, in a total assay volume of 1000 μl. Radioligand binding assays are composed of 5 ug of membranes, harvested from Rat-1 fibroblast cells expressing only one of the alpha1-AR subtypes, HEM buffer containing GTP (composed of 20 mM HEPES, pH 7.4, 1.4 mM EGTA, 12.5 mM MgCl2, pH to 7.4), 0.5 mM GTP, 35-80 pM^125I-HEAT, and various doses of norepinephrine or epinephrine and incubated with shaking at 25° C. for 1-2 hours. The above conditions will convert all the conformations of the receptor into a single low affinity site. To show both high and low affinity sites of the receptor (typically seen with GPCR agonists), the GTP is removed from the binding buffer. Nonspecific binding was determined experimentally in the presence of 10^−4 M phentolamine. Unbound radioactivity was separated from membrane-bound radioactivity by filtration through Whatman GF/C filter paper. Filters are washed five times with 5 ml of cold HEM buffer containing 0.5 mMGTP (if added to the binding buffer but not if it was not added to the binding buffer). Bound radioactivity remaining on the filters was counted on an ICN gamma counter operating at 79.8% efficiency. Data are analyzed using Graphpad Prism.
To determine the effects of compounds 1-10 on the binding affinity of norepinephrine or epinephrine, the competition binding assay was repeated as above with one dose of each individual compound (i.e. 10^−5M) added to each concentration point. Data are normalized to the norepinephrine or epinephrine binding curve alone without the addition of the compound to measure its effect on binding.

α1A-AR [2] = molecular target: T1, α1A-AR; assay: cAMP assay at α1A-AR; assay type: cell-based; parameters: expressed in transfected cells; host or cells: Rat-1 fibroblast cells
Protocol: cAMP assay: Cells expressing a single α1-adrenergic receptor subtype are washed and re-plated into 24-well plates in DMEM media without serum at approximately 2.4×10^4 cells/well. Cells are allowed to rest till the next day in a CO2 incubator at 37° C. The cells are washed twice with DMEM (no serum), then 1 ml of DMEM is added to each well. Cells are pre-incubated for 45 mins-1 hour at 37° C. in a CO2 incubator with 10 uM propranolol, followed by 100 uM IBMX for 30 minutes. Final DMSO concentration is at 0.05%. Norepinephrine or epinephrine is added in a dose response (1 dose per well) in addition to one of the Compounds 1-10 at one concentration (i.e. 10^−5M). Cells are incubated for another 30 mins at 37° C. in a CO2 incubator. The reaction is concluded by aspirating the media and adding 0.1M HCL. The mixture is incubated for 20 mins at room temperature. The cells are scraped and suspended until homogenous. The mixture is centrifuged at 1000 g for 10 mins and the supernatant assayed the same day according to a manufacturer's cAMP kit (Cayman Select Cyclic AMP EIA kit #501040).

In the case of `CC(C)Cc1c(OCC2=NCCN2)cccc1N(C)S(C)(=O)=O` [Compound 3, N-[3-(4,5-Dihydro-1H-imidazol-2-ylmethoxy)-2-isobutyl-phenyl]-N-methyl-methanesulfonamide], the “interaction with α2-ARs” value (α2-ARs) is reported as “does not interact with high affinity”, the “effect on binding affinity of epinephrine at the α1A-AR” value (α1A-AR [1]; 10^−5M (highest dose tested)) is reported as “no effect” and the “effect on binding affinity of norepinephrine at the α1A-AR” value (α1A-AR [1]; fixed dose of compound, 10^−5M to 10^−9M) is reported as “increasing the affinity of norepinephrine in a dose-specific manner”. The “PAM activity / PAM type” value (α1A-AR [2]) was “Type I PAM”, the “dose at which potentiation of norepinephrine cAMP response is maximal” value (α1A-AR [2]) was 10^−8 M and the “effect on epinephrine-mediated cAMP response at the α1A-AR” value (α1A-AR [2]; 10^−5M to 10^−7M of compound) was “no effect”. For the same compound, the “effect on norepinephrine-mediated cAMP response at the α1A-AR” value (α1A-AR [2]; 10^−5M to 10^−9M of compound) was “potentiates”, the “stimulation of cAMP by the compound by itself” value (α1A-AR [2]; compound alone) was “cannot stimulate” and the “potentiation of the cAMP response of norepinephrine” value (α1A-AR [2]; dose-response of compound) was 50%.
